Data on two molecules can be found in US20240192196A1, “NOVEL C[…]-CoV-2 SAFE REPLICON SYSTEM AND USE THEREOF” (SUN YAT-SEN UNIVERSITY, priority 2020, published 2024).

The structures appear in SMILES notation.

This test relates to novel coronavirus SARS-COV-2 safe replicon system. As to the kind of experiment: microbe, parasite or virus in culture. Type of test: cell-based. The settings on record: Severe acute respiratory syndrome coronavirus 2, HEK-293T, read-out: IC50 (semi-inhibitory concentration), inhibition of cellular luciferase activity.

For `Cc1cccc(C)c1OCC(=O)N[C@@H](Cc1ccccc1)[C@@H](O)C[C@H](Cc1ccccc1)NC(=O)[C@H](C(C)C)N1CCCNC1=O` [Lopinavir], the IC50 stood at 6.79 ± 1.09 µM.
Under `CCC(CC)COC(=O)[C@H](C)N[P@](=O)(OC[C@H]1O[C@@](C#N)(c2ccc3c(N)ncnn23)[C@H](O)[C@@H]1O)Oc1ccccc1` [Remdesivir] stands 12.4 ± 1.08 µM.
